These results are taken from patent US9493485B2, “Spirocyclic dihydro-thiazine and dihydro-oxazine BACE inhibitors, and compositions and uses thereof” (Imago Pharmaceuticals, Inc., priority 2012, dated 2016).

SMILES strings stand for the structures. Like-named read-outs stand apart in the source and are kept apart here.

The target in experiment [1] is T1, BACE1 (Homo sapiens (Human), UniProt P56817). The experiment in a line: BACE1 FP assay. In kind it is biochemical. The settings on record: pH 4.5. The procedure: (§1) BACE1 activity can be assessed in an AlphaScreen® assay. Compounds to be assessed (e.g. compounds as described in the above examples) are serially diluted 1:4 in DMSO, then plated by diluting 10 μL of compound with 40 μl of assay buffer (1×PBS, 0.01% Tween-20, pH 7.0, 0.05% BSA). The diluted compound is transferred (4 μL per well) to a 386 well assay plate and 4 μL of BACE1 enzyme ([…]) is added and incubated for 15 minutes. This assay uses a probe that is a BACE1 binding sight ligand linked to biotin, which can be displaced by test compound dependent on compound binding affinity. This of biotinylated probe (4 μL) is added and incubated for 1 hour, followed with 4 μL of donor and acceptor bead mixture and incubated for 2 hours. The fluorescent signal is read on a plate reader and the value as a function of compound concentration is used to determine the IC50. Compounds are also assessed for BACE1 and Cathepsin D activity using an FP Assay. Compounds to be assessed (e.g. compounds as described in the above examples) are serially diluted 1:3 with DMSO and each concentration point is transferred to a 96 well plate, 6 μL per well, followed by addition of 194 μL of assay buffer (100 mM sodium acetate, pH 4.5 with 0.001% Tween-20). A 10 μL compound sample from this plate is transferred to a well of a 384 well plate and combined with 10 μL per well of BACE1 enzyme (0.3 nM in assay buffer) or Cathepsin D enzyme (1.8 nM in assay buffer) and the plate is incubated at room temperature for 30 minutes.
T1 sequence (P56817 46-501): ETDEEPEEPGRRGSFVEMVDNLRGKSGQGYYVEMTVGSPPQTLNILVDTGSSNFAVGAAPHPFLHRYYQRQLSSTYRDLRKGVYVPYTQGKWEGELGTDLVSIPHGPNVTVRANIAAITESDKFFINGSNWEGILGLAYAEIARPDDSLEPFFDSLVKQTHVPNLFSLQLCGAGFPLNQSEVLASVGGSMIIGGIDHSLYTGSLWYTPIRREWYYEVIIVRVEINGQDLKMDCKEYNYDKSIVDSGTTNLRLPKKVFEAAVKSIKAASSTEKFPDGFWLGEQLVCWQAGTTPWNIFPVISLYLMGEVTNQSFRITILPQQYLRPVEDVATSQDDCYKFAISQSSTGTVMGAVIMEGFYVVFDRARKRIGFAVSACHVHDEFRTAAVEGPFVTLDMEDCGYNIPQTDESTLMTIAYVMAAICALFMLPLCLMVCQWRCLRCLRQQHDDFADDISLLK

Experiment [2] has as its system BACE1 inhibition in HEKp293 cells transfected with APP751 gene (SWE293). The experiment in a line: SWE293 cellular assay: reduction of Aβ peptide production, ELISA. The class given is cell-based. The following applies: Homo sapiens, read-out: SWE293 ED50. Here is the method:
BACE1 inhibition is also assessed in a cellular assay. HEKp293 cells transfected with APP751 gene (SWE293, American Type Culture Collection CRL-1563) are used to assess compounds for reduction in levels of Aβ peptide production. SWE293 cell medium is DMEM supplemented with 10% fetal bovine serum and 2 mM L-glutamine, 1.0 mM sodium pyruvate, 25 mM Hepes Buffer, 0.4 mg/mL geneticin (G418, Gibco BRL 860-181IIJ). Cells are maintained diluting 1:10 for 4 days in T-150 flask and 35 mL of cell media. For plating, cells are rinsed with 5 mL of 1×PBS, trypsinized with 4 mL of 0.05% Tripsin for 1 minute, and 12 mL of cell media is added. These are centrifuged at 1000 rpm for 4 minutes and the media aspirated, then 8 mL of media per flask is added. Based on cell count, appropriate amounts of cell and cell media are combined, and 180 μl per well are plated (96 well) and the plates are incubated overnight at 37° C., 5% CO2. Compounds to be tested are serially diluted 1:3 in DMSO and twice in media (without G418) in V-bottom plates and incubated at room temperature. Plated cells are washed with media, 3×50 μL per well and 17 μL per well of appropriate dilution of compound is added. Plates are incubated for 2 hours, and the wash steps, compound addition and incubation are repeated. Sample is transferred to capture plate (prepared with 266 antibody, see e.g. Johnson-Wood et al., PNAS February 1997, 94: 1550-1555), along with a standard curve of Aβ-40. ELISA assay is used to assess Aβ levels, washing with TBS, 0.05% Tween20 pH 7.5, then adding 1.3 mg/mL 3D6 antibody 1:900 in specimen diluents with thimericol is added (100 μl per well) and incubated for 1 hour. Wash step is repeated and Streptavidin-AP diluted 1:1000 in specimen diluents with thimerisol is added (100 μL per well) and incubated for 1 hour. Wash step is repeated and fluorescent substrate is added, 100 μL per well and incubated for 10 minutes followed by reading the fluorescent signal on a plate reader.
For orientation: An ELISA detects its analyte on a solid surface through an enzyme-linked reagent.

In a further experiment the target is Cathepsin D (Homo sapiens (Human), UniProt P07339). As to the kind of experiment: Cathepsin D FP assay. In kind it is biochemical. The settings on record: pH 4.5, read-out: CatD FP IC50. Here is the method: as §1
Sequence of Cathepsin D (P07339 65-412, species assumed): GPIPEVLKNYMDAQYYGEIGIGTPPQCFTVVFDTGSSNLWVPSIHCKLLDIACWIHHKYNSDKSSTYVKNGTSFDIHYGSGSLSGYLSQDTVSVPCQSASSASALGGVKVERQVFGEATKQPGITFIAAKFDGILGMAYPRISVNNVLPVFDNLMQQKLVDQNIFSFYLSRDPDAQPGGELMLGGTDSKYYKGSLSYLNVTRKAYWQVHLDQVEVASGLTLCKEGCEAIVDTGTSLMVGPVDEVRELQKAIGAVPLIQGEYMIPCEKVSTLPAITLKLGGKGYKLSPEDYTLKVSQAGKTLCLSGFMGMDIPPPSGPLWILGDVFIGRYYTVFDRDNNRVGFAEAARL
In experiment [3] the target is T1, BACE1. The experiment in a line: BACE1 AlphaScreen assay (displacement of biotinylated BACE1 binding site probe). The settings on record: read-out: BACE1 AS IC50. The procedure: as §1
[4] abbreviates: dose at which Aβ level is reduced by 50%, HEKp293 SWE293 cells.

For the molecule `C[C@@]1(c2cc(NC(=O)c3ccc(Br)cn3)ccc2F)CC2(CCC(F)(F)CC2)OC(N)=N1` [Compound 9-136, (S)—N-(3-(2-amino-9,9-difluoro-4-methyl-1-oxa-3-azaspiro[5.5]undec-2-en-4-yl)-4-fluorophenyl)-5-bromopicolinamide], the IC50 on BACE1 [1] is 0.05 µM; in experiment [2], 0.0089 µM; at Cathepsin D, greater than 30 µM; at BACE1 [3] it was 0.007 µM.

Turning to `CC#Cc1cncc(-c2ccc(F)c([C@]3(C)CC4(CCC4)OC(N)=N3)c2)c1` [Compound 8-111, (S)-8-(2-fluoro-5-(5-(prop-1-ynyl)pyridin-3-yl)phenyl)-8-methyl-5-oxa-7-azaspiro[3.5]non-6-en-6-amine], the IC50 was found to be 3.51 µM against BACE1 [1], 0.391 µM in experiment [2] (setting [4]), 5.08 µM at Cathepsin D and 0.088 µM at BACE1 [3].

In the case of `CC#Cc1cncc(-c2csc(C3(C)CC4(CCC4)OC(N)=N3)c2)c1` (centres unmarked) [Compound 8-103, 8-methyl-8-(4-(5-(prop-1-ynyl)pyridin-3-yl)thiophen-2-yl)-5-oxa-7-azaspiro[3.5]non-6-en-6-amine], the IC50 at BACE1 [1] came to 1.36 µM; in experiment [2] (setting [4]), 0.582 µM; on Cathepsin D, 7.92 µM; on BACE1 [3] it was 0.03 µM.

As for `C[C@@]1(c2cc(NC(=O)c3ccc(F)cn3)ccc2F)CC2(CCC(F)(F)CC2)OC(N)=N1` [Compound 9-123, (S)—N-(3-(2-amino-9,9-difluoro-4-methyl-1-oxa-3-azaspiro[5.5]undec-2-en-4-yl)-4-fluorophenyl)-5-fluoropicolinamide], the IC50 against BACE1 [1] is 0.27 µM; in experiment [2] (setting [4]), 0.019 µM; at Cathepsin D, greater than 30 µM; at BACE1 [3] it was 0.0087 µM.

As for `CC1(c2cc(NC(=O)c3ccc(Cl)cn3)ccc2F)N=C(N)OC2(CCOCC2)C1(F)F` (centres unmarked) [Compound 9-158, N-(3-(2-amino-5,5-difluoro-4-methyl-1,9-dioxa-3-azaspiro[5.5]undec-2-en-4-yl)-4-fluorophenyl)-5-chloropicolinamide], the IC50 is 0.094 µM against BACE1 [1], 0.182 µM in experiment [2] (setting [4]), 19.6 µM on Cathepsin D and 0.015 µM at BACE1 [3].

As for `C[C@]1(c2cc(NC(=O)c3ccc(F)cn3)ccc2F)CC2(CCC2)SC(N)=N1` [Compound 9-143, (R)—N-(3-(6-amino-8-methyl-5-thia-7-azaspiro[3.5]non-6-en-8-yl)-4-fluorophenyl)-5-fluoropicolinamide], the IC50 was 51.8 µM against BACE1 [1], 6.22 µM in experiment [2] (setting [4]), greater than 30 µM on Cathepsin D and greater than 7.5 µM on BACE1 [3].

Take `C[C@@]1(c2cc(NC(=O)c3ccc(Cl)cn3)ccc2F)CC2(CCC2)OC(N)=N1` [Compound 9-129, (S)—N-(3-(6-amino-8-methyl-5-oxa-7-azaspiro[3.5]non-6-en-8-yl)-4-fluorophenyl)-5-chloropicolinamide]: the IC50 against BACE1 [1] is 0.107 µM; in experiment [2] (setting [4]) it was 0.037 µM; at Cathepsin D it was greater than 30 µM; at BACE1 [3], 0.0083 µM.

On to `Cc1nc(C(=O)Nc2ccc(F)c([C@]3(C)CC4(CCC4)OC(N)=N3)c2)co1` [Compound 9-138, (S)—N-(3-(6-amino-8-methyl-5-oxa-7-azaspiro[3.5]non-6-en-8-yl)-4-fluorophenyl)-2-methyloxazole-4-carboxamide], for which the IC50 is 0.299 µM against BACE1 [1], 0.023 µM in experiment [2] (setting [4]), greater than 30 µM at Cathepsin D and 0.011 µM on BACE1 [3].

With `CC#Cc1cncc(-c2cc([C@]3(C)CC4(CCOCC4)OC(N)=N3)sc2C)c1` [Compound 8-108, (S)-4-methyl-4-(5-methyl-4-(5-(prop-1-ynyl)pyridin-3-yl)thiophen-2-yl)-1,9-dioxa-3-azaspiro[5.5]undec-2-en-2-amine], the IC50 at BACE1 [1] is 1.12 µM; in experiment [2] (setting [4]), 0.485 µM; on Cathepsin D, 9.32 µM; at BACE1 [3], 0.0175 µM.

Consider `CC1(c2cc(NC(=O)c3ccc(C#N)cn3)ccc2F)N=C(N)OC2(CCC2)C1(F)F` (centres unmarked) [Compound 9-161, N-(3-(6-amino-9,9-difluoro-8-methyl-5-oxa-7-azaspiro[3.5]non-6-en-8-yl)-4-fluorophenyl)-5-cyanopicolinamide], for which the IC50 against BACE1 [1] is 0.066 µM; in experiment [2] (setting [4]), 0.038 µM; at Cathepsin D it was greater than 30 µM; at BACE1 [3] it was 0.0135 µM.

Consider `C[C@@]1(c2cc(NC(=O)c3ccc(Cl)cn3)ccc2F)CC2(CCC(F)(F)CC2)OC(N)=N1` [Compound 9-124, (S)—N-(3-(2-amino-9,9-difluoro-4-methyl-1-oxa-3-azaspiro[5.5]undec-2-en-4-yl)-4-fluorophenyl)-5-chloropicolinamide], for which the IC50 was 0.06 µM at BACE1 [1], 0.011 µM in experiment [2] (setting [4]), greater than 30 µM at Cathepsin D and 0.0045 µM at BACE1 [3].

As to `CC#Cc1cncc(-c2csc(C3(C)CC4(CCOCC4)SC(N)=N3)c2)c1` (centres unmarked) [Compound 8-113, 4-methyl-4-(4-(5-(prop-1-ynyl)pyridin-3-yl)thiophen-2-yl)-9-oxa-1-thia-3-azaspiro[5.5]undec-2-en-2-amine], the IC50 at BACE1 [1] was 0.16 µM; in experiment [2] (setting [4]), 0.184 µM; on Cathepsin D, 1.88 µM; on BACE1 [3], less than 0.007 µM.

Take `CC#Cc1cncc(-c2csc(C3(C)CC4(CCOCC4)OC(N)=N3)c2)c1` (centres unmarked) [Compound 8-102, 4-methyl-4-(4-(5-(prop-1-ynyl)pyridin-3-yl)thiophen-2-yl)-1,9-dioxa-3-azaspiro[5.5]undec-2-en-2-amine]: the IC50 amounted to 2.29 µM against BACE1 [1], 0.365 µM in experiment [2], 4.43 µM at Cathepsin D and 0.069 µM on BACE1 [3].

`CC#Cc1cncc(-c2csc(C3(C)N=C(N)OC4(CCOCC4)C3(F)F)c2)c1` (centres unmarked) [Compound 8-114, 5,5-difluoro-4-methyl-4-(4-(5-(prop-1-ynyl)pyridin-3-yl)thiophen-2-yl)-1,9-dioxa-3-azaspiro[5.5]undec-2-en-2-amine]: the IC50 against BACE1 [1] worked out at 0.626 µM; in experiment [2] (setting [4]), 2.12 µM; at Cathepsin D, 5.54 µM; on BACE1 [3], 0.221 µM.

For `C[C@@]1(c2cc(NC(=O)c3ccc(C#N)cn3)ccc2F)CC2(CCC2)OC(N)=N1` [Compound 9-130, (S)—N-(3-(6-amino-8-methyl-5-oxa-7-azaspiro[3.5]non-6-en-8-yl)-4-fluorophenyl)-5-cyanopicolinamide], the IC50 was 0.046 µM against BACE1 [1], 0.0054 µM in experiment [2] (setting [4]), greater than 30 µM at Cathepsin D and 0.006 µM on BACE1 [3].

On to `C[C@@]1(c2cc(NC(=O)c3ccc(Cl)cn3)ccc2F)CC2(CC2)OC(N)=N1` [Compound 9-154, (S)—N-(3-(5-amino-7-methyl-4-oxa-6-azaspiro[2.5]oct-5-en-7-yl)-4-fluorophenyl)-5-chloropicolinamide], for which the IC50 at BACE1 [1] was 0.113 µM; in experiment [2] (setting [4]), 0.02 µM; on Cathepsin D it was greater than 30 µM; on BACE1 [3] it was 0.0075 µM.

Turning to `C[C@@]1(c2cc(NC(=O)c3ccc(Cl)cn3)ccc2F)CC2(CCOCC2)SC(N)=N1` [Compound 9-151, (S)—N-(3-(2-amino-4-methyl-9-oxa-1-thia-3-azaspiro[5.5]undec-2-en-4-yl)-4-fluorophenyl)-5-chloropicolinamide], the IC50 on BACE1 [1] is 0.005 µM; in experiment [2] (setting [4]), 0.0004 µM; at Cathepsin D it was greater than 30 µM; at BACE1 [3] it was 0.0097 µM.
